Source: patent US11046714B2, “2,2-difluorodioxolo A2A receptor antagonists” (Merck Sharp & Dohme Corp., priority 2013, dated 2021)

Molecular target: human A2A receptor (Homo sapiens (Human), UniProt P29274)
Experiment: competition binding assay using Scintillation Proximity technology
Details: membranes from CHO-K1 cells expressing the human A2a receptor; 2.0 nM tritiated compound; Cheng-Prusoff
Description: The utility of the compounds in accordance with the present invention as A2A receptor antagonists may be readily determined without undue experimentation by methodologies well known in the art, including by a competition binding assay using Scintillation Proximity technology. Briefly, membranes from CHO-K1 cells expressing the human A2A receptor are incubated with a test compound at various concentrations, e.g., ranging from 3000 nM to 0.15 nM, in a reaction mixture also containing a tritiated form of 5-amino-7-[2-phenethyl]-2-(furan-2-yl)-7H-pyrazolo[4,3-e][1,2,4]triazolo[1,5-c]pyrimidine (the tritiated compound) and wheatgerm agglutin-coated yttrium silicate SPA beads at room temperature. The beads are then allowed to settle to the bottom of the wells, after which the membrane-associated radioactivity is determined by scintillation counting in a microplate reader. Ki values can be determined using the Cheng-Prusoff equation.
Thus, 1.0 μg of membranes from CHO-K1 cells expressing the human A2a receptor were incubated with a compound of the invention at concentrations ranging from 3000 nM to 0.15 nM in a reaction mixture also containing 2.0 nM of a tritiated form of 5-amino-7-[2-phenethyl]-2-(furan-2-yl)-7H-pyrazolo[4,3-e][1,2,4]triazolo[1,5-c]pyrimidine (the tritiated compound) and 100 μg of wheatgerm agglutin-coated yttrium silicate SPA beads for one hour at room temperature with agitation. The beads were then allowed to settle to the bottom of the wells for 1 hr, after which the membrane-associated radioactivity was determined by scintillation counting in a TopCount microplate reader. Ki values were determined using the Cheng-Prusoff equation.
Summary of Materials and Methods Used in A2a Activity Determination:
• Membranes from CHO-K1 cells expressing the human Adenosine2A receptor (Perkin-Elmer #RBHA2AM400UA). • The tritiated compound was prepared according to published methods. • Wheatgerm agglutinin-coated yttrium silicate SPA beads (GE Healthcare #RPNQ0023). Dilute to 25 mg/ml in Assay Buffer. • Assay Buffer: Dulbecco's calcium and magnesium free phosphate buffered saline+10 mM MgCl2 • Adenosine deaminase (ADA) from calf intestine, 10 mg/2 ml (Roche #10 102 105 001). • DMSO • A2a antagonist standard (9-chloro-1-(2-furanyl)-[1,2,4]triazolo[1,5-c]quinazolin-5-amine from Tocris Bioscience) Compound Dilution • Make eight 1:3 serial dilutions in 100% DMSO from a 3 mM compound stock. • Transfer 50 nL of compound into a 384-well OptiPlate (Perkin Elmer). • Typically, final concentrations of compound used in the assay ranged from 3000 nM to 0.152 nM. Radioisotope • Dilute a solution of the tritiated compound to 5.0 nM in assay buffer. This is a 2.5× solution. The final concentration in the assay is 2.0 nM. Calculate the concentration by counting two 5 μL aliquots. Membrane Preparation • Use 1.0 μg of membrane/well. Dilute membranes to 33 μg/mL in assay buffer. Treat with 20 μg/mL ADA for 15 minutes at room temperature to degrade endogenous adenosine. Membrane-Bead Mixture • Use 100 μg/well wheatgerm agglutinin-coated yttrium silicate SPA beads. • Mix ADA-treated membranes and SPA beads together for 30 min prior to assay. Assay Assembly • To the Perkin-Elmer Optiplate-384 containing the compound titration add 20 μL of 2.5× solution of the tritiated compound and 30 μL of the membrane-bead mixture. Incubate for one hour at room temperature with agitation. • Include total binding (assay buffer+1% DMSO) and non-specific binding (CGS 15943, 1 μM) wells. Counting • Allow the beads to settle for one hour. • Count in TopCount. Calculations • A curve fitting program (i.e., Prism, Activity Base, Chemcart) is used to determine the EC50. The Ki value is calculated using the Cheng-Prusoff equation. Ki=EC50/(1+(radioligand concentration/Kd))

Sequence of human A2A receptor (P29274 whole entry): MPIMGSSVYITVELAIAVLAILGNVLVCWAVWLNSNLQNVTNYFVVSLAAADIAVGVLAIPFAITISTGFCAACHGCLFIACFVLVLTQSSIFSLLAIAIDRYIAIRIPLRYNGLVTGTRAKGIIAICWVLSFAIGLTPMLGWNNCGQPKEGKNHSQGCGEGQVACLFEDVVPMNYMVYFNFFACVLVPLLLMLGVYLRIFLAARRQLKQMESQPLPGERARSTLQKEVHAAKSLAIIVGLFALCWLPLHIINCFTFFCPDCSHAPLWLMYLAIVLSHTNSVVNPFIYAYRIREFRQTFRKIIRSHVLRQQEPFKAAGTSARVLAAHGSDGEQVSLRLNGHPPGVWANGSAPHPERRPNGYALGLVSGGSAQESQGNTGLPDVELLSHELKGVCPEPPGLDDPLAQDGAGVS

Question: How did the Ki turn out when Nc1nc2c3c(ccc2c2nc(CC(C(F)F)N4Cc5cccnc5C4)nn12)OC(F)(F)O3 (single isomer, unassigned) [Example 97, (R or S)-8-(3,3-difluoro-2-(5H-pyrrolo[3,4-b]pyridin-6(7H)-yl)propyl)-2,2-difluoro-[1,3]dioxolo[4,5-h][1,2,4]triazolo[1,5-c]quinazolin-5-amine] was run?
Answer: Its Ki is 2.2 nM.

Question: Which Ki does the source give for Nc1nc2c3c(ccc2c2nc(CC(C(F)F)N4Cc5cccnc5C4)nn12)OC(F)(F)O3 (single isomer, unassigned) [Example 98, (R or S)-8-(3,3-difluoro-2-(5H-pyrrolo[3,4-b]pyridin-6(7H)-yl)propyl)-2,2-difluoro-[1,3]dioxolo[4,5-h][1,2,4]triazolo[1,5-c]quinazolin-5-amine] here?
Answer: Its Ki is 6.6 nM.

Question: For CC(c1nc2c3ccc4c(c3nc(N)n2n1)OC(F)(F)O4)N1CC(F)(F)C1 (single isomer, unassigned) [Example 131, (R or S)-8-[1-(3,3-difluoroazetidin-1-yl)ethyl]-2,2-difluoro[1,3]dioxolo [4,5-h][1,2,4]triazolo[1,5-c]quinazolin-5-amine], which Ki is on record?
Answer: Its Ki is 130 nM.

Question: How did the Ki turn out when CC(c1nc2c3ccc4c(c3nc(N)n2n1)OC(F)(F)O4)N1CC(F)(F)C1 (single isomer, unassigned) [Example 132, (R or S)-8-[1-(3,3-difluoroazetidin-1-yl)ethyl]-2,2-difluoro[1,3]dioxolo [4,5-h][1,2,4]triazolo[1,5-c]quinazolin-5-amine] was run?
Answer: The Ki was 56 nM.

Question: CC(c1nc2c3ccc4c(c3nc(N)n2n1)OC(F)(F)O4)N1C[C@H](F)[C@@H](F)C1 (single isomer, unassigned) [Example 133, (R or S)-8-{1-[(3S,4S)-3,4-difluoropyrrolidin-1-yl]ethyl}-2,2-difluoro[1,3]dioxolo[4,5-h][1,2,4]triazolo[1,5-c]quinazolin-5-amine] was tested. Which Ki did it give?
Answer: Its Ki is 64 nM.

Question: Which Ki does the source give for CC(c1nc2c3ccc4c(c3nc(N)n2n1)OC(F)(F)O4)N1C[C@H](F)[C@@H](F)C1 (single isomer, unassigned) [Example 134, (R or S)-8-{1-[(3S,4S)-3,4-difluoropyrrolidin-1-yl]ethyl}-2,2-difluoro[1,3]dioxolo[4,5-h][1,2,4]triazolo[1,5-c]quinazolin-5-amine] here?
Answer: The Ki was 24 nM.

Question: With CC(c1nc2c3ccc4c(c3nc(N)n2n1)OC(F)(F)O4)N1CCCC(F)(F)C1 (single isomer, unassigned) [Example 135, 8-[(1S or 1R)-1-(3,3-difluoropiperidin-1-yl)ethyl]-2,2-difluoro[1,3]dioxolo [4,5-h][1,2,4]triazolo[1,5-c] quinazolin-5-amine] as the compound, how does the Ki read?
Answer: Its Ki is 89 nM.

Question: With CC(c1nc2c3ccc4c(c3nc(N)n2n1)OC(F)(F)O4)N1CCCC(F)(F)C1 (single isomer, unassigned) [Example 136, 8-[(1S or 1R)-1-(3,3-difluoropiperidin-1-yl)ethyl]-2,2-difluoro[1,3]dioxolo [4,5-h][1,2,4]triazolo[1,5-c] quinazolin-5-amine] as the compound, how does the Ki read?
Answer: The Ki was 25 nM.

Question: How did the Ki turn out when Nc1nc2c3c(ccc2c2nc(C4CCCN(CCC(F)(F)F)C4)nn12)OC(F)(F)O3 (single isomer, unassigned) [Example 140, (R or S)-2,2-difluoro-8-(1-(3,3,3-trifluoropropyl)piperidin-3-yl)-[1,3]dioxolo[4,5-h][1,2,4]triazolo[1,5-c]quinazolin-5-amine] was run?
Answer: Its Ki is 0.8 nM.

Question: How did the Ki turn out when Nc1nc2c3c(ccc2c2nc(C4CCCN(CCC(F)(F)F)C4)nn12)OC(F)(F)O3 (single isomer, unassigned) [Example 141, (R or S)-2,2-difluoro-8-(1-(3,3,3-trifluoropropyl)piperidin-3-yl)-[1,3]dioxolo[4,5-h][1,2,4]triazolo[1,5-c]quinazolin-5-amine] was run?
Answer: Its Ki is 55 nM.

Question: For Nc1nc2c3c(ccc2c2nc(C4CCCN(c5cccc(F)c5)C4)nn12)OC(F)(F)O3 (single isomer, unassigned) [Example 142, (R or S)-2,2-difluoro-8-[1-(3-fluorophenyl)piperidin-3-yl][1,3]dioxolo[4,5-h][1,2,4]triazolo[1,5-c]quinazolin-5-amine], which Ki is on record?
Answer: Its Ki is 1.2 nM.

Question: Nc1nc2c3c(ccc2c2nc(C4CCCN(c5cccc(F)c5)C4)nn12)OC(F)(F)O3 (single isomer, unassigned) [Example 143, (R or S)-2,2-difluoro-8-[1-(3-fluorophenyl)piperidin-3-yl][1,3]dioxolo[4,5-h][1,2,4]triazolo[1,5-c]quinazolin-5-amine] was tested. Which Ki did it give?
Answer: The Ki was 59 nM.

Question: For Nc1nc2c3c(ccc2c2nc(C4CCCN(c5cc(F)cc(F)c5)C4)nn12)OC(F)(F)O3 (single isomer, unassigned) [Example 144, (R or S)-8-[1-(3,5-difluorophenyl)piperidin-3-yl]-2,2-difluoro[1,3] dioxolo[4,5-h][1,2,4]triazolo[1,5-c]quinazolin-5-amine], which Ki is on record?
Answer: Its Ki is 1.2 nM.

Question: Nc1nc2c3c(ccc2c2nc(C4CCCN(c5cc(F)cc(F)c5)C4)nn12)OC(F)(F)O3 (single isomer, unassigned) [Example 145, (R or S)-8-[1-(3,5-difluorophenyl)piperidin-3-yl]-2,2-difluoro[1,3] dioxolo[4,5-h][1,2,4]triazolo[1,5-c]quinazolin-5-amine] was tested. Which Ki did it give?
Answer: The Ki was 140 nM.

Question: With Nc1nc2c3c(ccc2c2nc(C4CCCN(c5cncnc5)C4)nn12)OC(F)(F)O3 (single isomer, unassigned) [Example 146, (R or S)-2,2-difluoro-8-(1-pyrimidin-5-ylpiperidin-3-yl)[1,3]dioxolo[4,5-h][1,2,4]triazolo[1,5-c]quinazolin-5-amine] as the compound, how does the Ki read?
Answer: Its Ki is 44 nM.

Question: Nc1nc2c3c(ccc2c2nc(C4CCCN(c5cncnc5)C4)nn12)OC(F)(F)O3 (single isomer, unassigned) [Example 147, (R or S)-2,2-difluoro-8-(1-pyrimidin-5-ylpiperidin-3-yl)[1,3]dioxolo[4,5-h][1,2,4]triazolo[1,5-c]quinazolin-5-amine] was tested. Which Ki did it give?
Answer: Its Ki is 2.9 nM.

Question: For Nc1nc2c3c(ccc2c2nc(CC4CCN(CCC(F)(F)F)C4)nn12)OC(F)(F)O3 (single isomer, unassigned) [Example 154, (R or S)-2,2-difluoro-8-{[1-(3,3,3-trifluoropropyl)pyrrolidin-3-yl]methyl}[1,3]dioxolo[4,5-h][1,2,4]triazolo[1,5-c]quinazolin-5-amine], which Ki is on record?
Answer: Its Ki is 20 nM.

Question: How did the Ki turn out when Nc1nc2c3c(ccc2c2nc(CC4CCN(CCC(F)(F)F)C4)nn12)OC(F)(F)O3 (single isomer, unassigned) [Example 155, (R or S)-2,2-difluoro-8-{[1-(3,3,3-trifluoropropyl)pyrrolidin-3-yl]methyl}[1,3]dioxolo[4,5-h][1,2,4]triazolo[1,5-c]quinazolin-5-amine] was run?
Answer: The Ki was 7.2 nM.

Question: Which Ki does the source give for Nc1nc2c3c(ccc2c2nc(CC4CCN(CC(F)F)C4)nn12)OC(F)(F)O3 (single isomer, unassigned) [Example 156, (R or S)-8-{[1-(2,2-difluoroethyl)pyrrolidin-3-yl]methyl}-2,2-difluoro[1,3]dioxolo[4,5-h][1,2,4]triazolo[1,5-c]quinazolin-5-amine] here?
Answer: Its Ki is 5.3 nM.

Question: COCCN1CCC(Cc2nc3c4ccc5c(c4nc(N)n3n2)OC(F)(F)O5)C1 (single isomer, unassigned) [Example 157, (R or S)-2,2-difluoro-8-{[1-(2-methoxyethyl)pyrrolidin-3-yl]methyl}[1,3]dioxolo [4,5-h][1,2,4]triazolo[1,5-c]quinazolin-5-amine] was tested. Which Ki did it give?
Answer: The Ki was 75 nM.

Question: Nc1nc2c3c(ccc2c2ncnn12)OC(F)(F)O3 [Example 1, 2,2-difluoro-[1,3]dioxolo[4,5-h][1,2,4]triazolo[1,5-c]quinazolin-5-amine] was tested. Which Ki did it give?
Answer: The Ki was 12 nM.
